The source of these data is article PMC9297947 (Chembiochem, 2021).

In data set [1] the target is T1, AurA (Homo sapiens, UniProt O14965).
T1 construct: purchased Carna Bioscience
T1 sequence (O14965 1-403): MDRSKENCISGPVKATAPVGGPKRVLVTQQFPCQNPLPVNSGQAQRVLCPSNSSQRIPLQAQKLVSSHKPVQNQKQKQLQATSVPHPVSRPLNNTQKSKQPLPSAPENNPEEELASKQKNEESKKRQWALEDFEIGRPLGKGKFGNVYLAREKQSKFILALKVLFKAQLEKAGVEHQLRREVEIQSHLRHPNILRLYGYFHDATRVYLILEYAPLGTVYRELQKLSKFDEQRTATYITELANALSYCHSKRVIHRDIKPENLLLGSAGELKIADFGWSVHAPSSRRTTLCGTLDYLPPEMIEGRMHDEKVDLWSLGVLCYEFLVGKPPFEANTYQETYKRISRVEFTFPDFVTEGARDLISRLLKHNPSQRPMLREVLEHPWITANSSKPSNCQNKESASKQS
The data set is described as follows: Lineweaver-Burk inhibition mechanism (IMAP TR-FRET, various ATP), AurA. Type of data set: biochemical. Conditions: Lineweaver-Burk plot, various concentrations of ATP. For orientation: Time-resolved FRET reads energy transfer from a long-lived donor to a nearby acceptor.
Text: Inhibition Mechanism of Peptide inhibitor Bip-3 for Aurora-A
Lineweaver-Burk plots were generated by plotting the TR-FRET ratio values, which are proportional to reaction velocity in these conditions [8,9], as a function of the velocity versus ATP concentration ratio (v/[ATP]) at different concentrations of the peptide [19,20].

Data set [2] addresses T1, AurA. The data set is described as follows: IMAP TR-FRET kinase inhibition assay, AurA. Conditions: for IC50: FAM-Kemptide 1 µM, ATP 5 µM (Table S2; Figure 3 legend prints mM), TBS reaction buffer. Type of data set: biochemical.
In data set [3] the test system is phage infectivity of the host TG1 E. coli cells. The data set can be described thus: Phage infectivity after chemical modification. Conditions: higher concentrations within 0.5–500 μM in PBS, room temperature, 2 h; P8-2KA phage clone. As to the method:
Mild conditions are required for modification to minimize damage to phage clones so that they remain infectious to the host Escherichia coli cells.[[8a]] […] Phage clones (10^11 cfu) of P8‐2KA were treated with 200 μL of serially diluted maleimide‐PEG2‐biotin (0.5–500 μM) in PBS at room temperature for 2 h (Supporting Figure S3).
2. Chemical Modification of HLH peptide on Phage
All of the experiments were performed as described. 200 µL of phage (1012 cfu) was dissolved in PBS (pH 7.0), and 1 µL of 1 mM Maleimide-PEG2-biotin (EZ-Link® Maleimide-PEG2-Biotin, Thermo Scientific) was added and incubated for 2 hr at room temperature. To eliminate the residual reagents in phage solution, the treated solution was purified by ultrafiltration at 14,000 g for 20 min at 4 C by using Amicon® Ultra 0.5 mL Ultracel® 10K (Millipore). After discarding the flow-through, 200 µL of chilled PBST was added, and centrifugated as the same above. 100 µL of the chemically modified phage was added to Streptavidin High Capacity Coated Plate (SIGMA). Detection of phages was performed as described above by using Anti-M13 antibody conjugated with HRP.
3. The Infectivity of phages after Chemical Modification
All of the experiments were performed as described. […] Then the E. coli cells were inoculated onto LB/Agar containing 20 µg/mL chloramphenicol over night at 37°C, and colonies were counted. […]

Data set [4] concerns G‐CSF‐R. The data set can be described thus: Phage ELISA, G-CSF-R. Type of data set: binding. Conditions: phage clone displaying P8-2KA, 10^10 cfu; HRP anti-M13, OD490. As to the method:
(§1) All of the experiments were performed as described . In this study, the insert fragment encoding of helix-loop- helix (HLH) peptide P8-2KA and phage clone displaying no peptide were prepared. With regard to clone P8-2KA, the insert fragment was initially prepared by overlap extension PCR using P8-2KA 1 fwd and P8-2KA 1 rev. After purification of the fragment, restriction site SfiI and E-tag epitope were introduced by the following PCR using Sfi- YT1- CD 2 fwd and Etag- linker 2 rev, and the product was purified. The fragment was fused with the pIII gene amplified by the two primers prepcr and Sfi2fo with the template fdg3p0ss21, and a fragment encoding P8- 2KA- fused pIII was prepared as described. After digestion of the fragment by SfiI and the succeeding purification, the fragment was ligated with fdg3p0ss21-stop which was digested with the same restriction enzyme. As a negative control, we also prepared a clone displaying no HLH peptide on phage. To prepare the phage clone, only linker primer was used in the PCR together with Sfi2fo and the pIII gene amplified from the template fdg3p0ss21 as described above. […]
(§2) […] After was hing the wells with PBST 10 times, 100 µL of HRP Anti-M13 antibody conjugated (1:4000) was added, and the OD490 values were measured after adding o-phenylene diamine ([…] OPD, SIGMA) and adding 50 µL of

In data set [5] the target is G‐CSF‐R. The note with it: ref [2e] El-Haggar et al., Bioorg. Med. Chem. Lett. 2010; cited from earlier work. The text has this: Mild conditions are required for modification to minimize damage to phage clones so that they remain infectious to the host Escherichia coli cells.[[8a]]
In a further data set the test system is BSA. The data set can be described thus: Phage ELISA, BSA. It is filed as binding. The note with it: phage clone displaying P8-2KA, 10^10 cfu; HRP anti-M13, OD490. Here is the method:
as §1, §2
In general terms: An ELISA detects its analyte on a solid surface through an enzyme-linked reagent.

The test system of another data set is anti‐E‐tag antibody. The data set can be described thus: Phage ELISA, anti-E-tag antibody. It is filed as binding. The note with it: phage clone displaying P8-2KA, 10^10 cfu; HRP anti-M13, OD490. Here is the method: as §1, §2
The test system of the next data set is KDR (VEGF receptor). The data set is described as follows: Phage ELISA, KDR. Type of data set: binding. Conditions: phage clone displaying P8-2KA, 10^10 cfu; HRP anti-M13, OD490. Here is the method:
as §1, §2

Data set [6] deals with AurA, AurB, AurC, PAK4, Erk2, PKACα, and Src. The data set is described as follows: IMAP TR-FRET kinase selectivity panel. Type of data set: biochemical. The note with it: 5 μM Bip-3-Adc vs AurA. Here is the method: Figure 3 Inhibitory activities of the selected peptide Bip‐3 and the adenosine‐tethering peptide Bip‐3‐Adc for AurA. (a) The structure of synthesized Bip‐3‐Adc, Bip‐3, and the original HLH peptide YT1. (b) The CD spectra of 20 μM Bip‐3 and YT1 measured in TBS at 20 °C. (c) The binding activity of Bip‐3 to immobilized AurA as determined by SPR experiments (TBS, 0.005 % P‐20, 25 °C). (d) Dose‐dependent inhibitory activities of Bip‐3 and Bip‐3‐Adc for AurA measured using an IMAP® TR‐FRET assay. Inhibition of AurA was determined at 100 ng/mL AurA, 1 mM 5FAM‐Kemptide, 5 mM ATP, in TBS reaction buffer. (e) Inhibitory activities of 5 μM Bip‐3‐Adc for AurA, AurB, AurC, PAK4, Erk2, PKACα, and Src, determined using the IMAP® TR‐FRET assay.
CD spectra were recorded in TBS at overall peptide concentration of 20 μM on a J-820 spectrometer at 20°C (PTC-423L thermostat, Jasco). The peptide concentrations were determined by measuring absorbance of aromatic residues of peptide dissolved in 6 M Gdn•HCl at UV 280 nm[14].
9. Surface Plasmon Resonance […]
denaturation of AurA, measurements were performed without regeneration of the sensor chip surface at each cycle, and any cycles were started after complete dissociation of analytes from the sensor chip. […] The concentration of adenosine-labeled peptide was determined by using the molar extinction coefficient of adenosine, and aromatic residues at UV 260 […]

The next data set is described as follows: Circular dichroism. Type of data set: physicochemical. The note with it: CD, 20 μM peptide in TBS, 20 °C; compared with YT1. In general terms: CD spectra are sensitive to the conformation of chiral molecules.
A further data set deals with T2, Aurora kinase A (AurA) (Homo sapiens, UniProt O14965).
T2 chain: T1 sequence (O14965 1-403)
The data set is described as follows: SPR.

The mark [7] stands for this setting: 100 ng/mL AurA, 1 hr, room temperature.

* marks the point of attachment. X1 = Nc1ncnc2c1ncn2[C@@H]1O[C@H](C(=O)NCCNC(=O)CCN2C(=O)CC(*)C2=O)[C@@H](O)[C@H]1O

On to `Nc1ncnc2c1ncn2[C@@H]1O[C@H](CO)[C@@H](O)[C@H]1O` [adenosine], for which the “mode of inhibition with respect to ATP” value on AurA [1] was “competitive inhibition for ATP”. Also, at AurA [2] (setting [7]), the IC50 (as a rule, the concentration that gives 50% inhibition) is 0.474 mM.
Consider `O=C(CCCC[C@@H]1SC[C@@H]2NC(=O)N[C@@H]21)NCCOCCOCCNC(=O)CCN1C(=O)C=CC1=O` [maleimide‐PEG2‐biotin], for which, in data set [3], the “phage infectivity of TG1 E. coli cells” value is “small loss of phage infectivity”.
On to AELAALEAELAALE‐G7‐KLAALKAKLAALKAY [YT1], for which, at AurA [2] (setting [7]), the “inhibitory activity for AurA” value is listed as “no inhibitory activity”.
For “CDGGSGGGS‐AELAALEAELAALE‐G7‐KLAMLKLKLAELKRY [P8‐2KA]”, the “binding to G-CSF-R” value in the data set with G‐CSF‐R [4] is reported as “selective binding”. Also, the Kd (in general, a measure of binding affinity in units of concentration) at G‐CSF‐R [5] was 0.214 µM. The “binding to BSA” value in the data set with BSA is reported as “no binding was observed”. Also, the “binding to anti-E-tag antibody” value with anti‐E‐tag antibody is recorded as “bound to anti‐E‐tag antibody”. Besides, in the data set on KDR (VEGF receptor), the “binding to KDR” value was “no binding was observed”.
For the molecule “H-C(X1)DGGSGGGSAELAALEAELAALEGGGGGGGKLEYLKWKLWPLKGW-NH2 [Bip‐3‐Adc]”, on AurA [1], the “mode of inhibition with respect to ATP” value is on record as “uncompetitive inhibition”. For the same molecule, the “kinase selectivity” value in [6] was “highest inhibitory activity and remarkable selectivity for AurA”. The “fold difference in IC50 (inhibition of AurA) vs Bip-3” value on AurA [2] (Bip-3-Adc vs Bip-3 (IC50 103 μM)) is recorded as 13 fold. Besides, the “fold difference in IC50 (inhibition of AurA) vs adenosine” value at AurA [2] (Bip-3-Adc vs adenosine (IC50 474 μM)) turned out to be 62 fold.
“H-CDGGSGGGSAELAALEAELAALEGGGGGGGKLEYLKWKLWPLKGW-NH2 [Bip‐3]”: on AurA [1], the “mode of inhibition with respect to ATP” value is on record as “mixed inhibition”. The “α-helical content” value in the data set “Circular dichroism” was “high α‐helical content comparable with that of the original peptide YT1”. The same molecule came in with an IC50 at AurA [2] (setting [7]) of 0.103 mM.
The molecule CDGGSGGGSAELAALEAELAALEGGGGGGGKLEYLKWKLWPLKGW [Bip-3] displayed a dissociation constant (Kd) with Aurora kinase A (AurA) of 13.7 µM.
